Holding throughout (format): biochemical
One assay concerns the target T1, VEGFR2 kinase (Homo sapiens, UniProt P35968).
T1 construct: purchased Invitrogen Inc PV3660
Put plainly: In vitro VEGFR2 kinase assay. Here is the method: (§1) In Vitro VEGFR2 and PDGFRP Kinase Assays
(§2) 2.5 μl of ADP Quest assay buffer (DiscoverX Inc., cat. #90-0071) containing 20 ng VEGFR2 kinase (Invitrogen Inc, cat. #PV3660) or 25 ng PDGFRβ kinase (Invitrogen Inc., cat. #P3082) is dispensed to wells of a 1536 multi-well, black solid plate. 60 nl of 100× concentration of test compound in DMSO is dispensed to the well by passive pin transfer and incubated for 10 minutes at room temperature (approx. 22° C.). 2.5 μl of ADP Quest assay buffer containing 0.25 μg of poly Glu:Tyr (4:1) substrate peptide (Upstate Inc., cat. #12-440) and 60 μM ATP is then dispensed and the kinase reaction allowed to incubate at 30° C. for 2 hours. The assay plates are sealed and maintained in a humidified environment. After the 2 hour incubation, 2 μl of ADP Quest assay reagent A, followed by 2 μl of assay reagent B, is added. After an additional 30 minute incubation at room temperature, fluorescence intensity is measured on a Molecular Devices Aquest multi-mode plate reader or other suitable plate reader (fluorescence excitation filter: 530/25 [Peak(nm)/FWHM passband(nm)]; dichroic beamsplitter: 561 nm longpass; fluorescence emission filter: 580/10 [Peak(nm)/FWHM passband(nm)]. The assay measures the conversion of a non-fluoresecent molecule to fluorescent resorufin, which correlates with kinase activity. Negative control activity is measured with DMSO lacking any test compound. The positive control is [N-(3-trifluoromethyl-4-chlorophenyl)-N′-(4-(2-methylcarbamoyl-pyridin-4-yl)oxyphenyl)urea], aka Bay 43-9006. Efficacy is measured as a percentage of positive control activity.

In assay [1] the target is T2, human B-Raf protein kinase (Homo sapiens, UniProt P15056).
T2 construct: GST (N); purchased Upstate Inc. 14-530 (B-Raf); 14-420 (Mek1)
Put plainly: In vitro B-Raf/Mek1 composite kinase assay. Here is the method:
In Vitro B-Raf/Mek1 Composite Kinase Assay
2.5 μl of B-Raf kinase buffer (20 mM MOPS [pH 7.2], 25 mM sodium glycerophosphate, 2 mM EGTA [pH 8.0], 1 mM sodium orthovanadate, 1 mM dithiothreitol, 10 mM MgCl2, 0.03% Brij-35, 0.3 mg/ml bovine serum albumin) containing lng of recombinant, N-terminal GST-tagged human B-Raf protein kinase (Δ1-415, Upstate Inc., cat. #14-530) is dispensed to wells of a 1536 multi-well white solid plate. 60 nl of 100× concentration of test compound in DMSO is dispensed to the well by passive pin transfer and incubated for 15 minutes at room temperature (approx. 22° C.). […] The assay plates are sealed and maintained in a humidified environment. After 2 hours, 2.5 μl of PKLight protein kinase assay reagent (Cambrex, cat. #LT07-501) is dispensed. After an additional 5 minute incubation at room temperature, luminescence activity is measured on a Molecular Devices Analyst multi-mode plate reader or other suitable plate reader. Kinase inhibition results in less ATP depletion, and therefore increased luminescence signal. Negative control activity is measured with DMSO lacking any test compound. The positive control is [N-(3-trifluoromethyl-4-chlorophenyl)-N′-(4-(2-methylcarbamoyl-pyridin-4-yl)oxyphenyl)urea], aka Bay 43-9006. Efficacy is measured as a percentage of positive control activity.

For another assay, the target named is T3, PDGFRβ kinase (Homo sapiens, UniProt P09619).
T3 construct: purchased Invitrogen Inc. P3082
Kind of assay: In vitro PDGFRβ kinase assay. As for the experimental part:
as §1, §2

T3 sequence (P09619 33-1106): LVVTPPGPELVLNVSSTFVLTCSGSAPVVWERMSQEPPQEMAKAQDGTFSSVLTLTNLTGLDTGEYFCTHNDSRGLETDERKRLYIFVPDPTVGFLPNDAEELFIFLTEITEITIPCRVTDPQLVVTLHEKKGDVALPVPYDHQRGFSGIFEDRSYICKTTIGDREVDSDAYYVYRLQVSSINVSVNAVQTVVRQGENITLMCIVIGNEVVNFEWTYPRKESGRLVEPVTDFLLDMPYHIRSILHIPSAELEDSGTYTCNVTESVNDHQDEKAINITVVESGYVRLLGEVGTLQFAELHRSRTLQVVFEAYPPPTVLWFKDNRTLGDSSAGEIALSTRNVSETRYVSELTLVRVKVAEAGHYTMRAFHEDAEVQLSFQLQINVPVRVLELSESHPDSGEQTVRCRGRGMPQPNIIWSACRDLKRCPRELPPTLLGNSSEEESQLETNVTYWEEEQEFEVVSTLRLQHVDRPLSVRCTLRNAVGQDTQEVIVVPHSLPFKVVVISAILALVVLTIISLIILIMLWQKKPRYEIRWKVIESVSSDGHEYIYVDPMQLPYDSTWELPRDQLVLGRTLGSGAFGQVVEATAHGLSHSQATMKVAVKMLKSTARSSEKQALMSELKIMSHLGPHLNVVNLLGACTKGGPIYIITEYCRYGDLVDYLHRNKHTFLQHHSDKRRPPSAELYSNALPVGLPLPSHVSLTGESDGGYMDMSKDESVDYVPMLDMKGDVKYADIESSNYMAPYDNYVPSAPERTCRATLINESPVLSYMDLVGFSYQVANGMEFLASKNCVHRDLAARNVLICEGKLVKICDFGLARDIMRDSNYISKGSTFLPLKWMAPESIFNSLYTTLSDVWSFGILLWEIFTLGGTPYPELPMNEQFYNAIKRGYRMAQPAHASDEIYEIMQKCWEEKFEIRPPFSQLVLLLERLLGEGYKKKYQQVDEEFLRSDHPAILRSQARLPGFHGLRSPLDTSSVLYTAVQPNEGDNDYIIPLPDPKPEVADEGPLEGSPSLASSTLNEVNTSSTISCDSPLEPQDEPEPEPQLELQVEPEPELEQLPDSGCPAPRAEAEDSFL
T2 sequence (P15056 416-766): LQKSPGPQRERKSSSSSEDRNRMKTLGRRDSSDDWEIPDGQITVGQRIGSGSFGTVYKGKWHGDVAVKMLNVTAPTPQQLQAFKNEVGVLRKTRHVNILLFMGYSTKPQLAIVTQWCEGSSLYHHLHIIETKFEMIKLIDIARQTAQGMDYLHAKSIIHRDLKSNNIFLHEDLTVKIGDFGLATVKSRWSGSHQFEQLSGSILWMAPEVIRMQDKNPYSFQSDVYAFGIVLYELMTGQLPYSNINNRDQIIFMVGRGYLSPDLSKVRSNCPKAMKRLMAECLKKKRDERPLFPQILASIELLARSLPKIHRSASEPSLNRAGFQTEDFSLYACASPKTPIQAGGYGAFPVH
T1 sequence (P35968 20-1356): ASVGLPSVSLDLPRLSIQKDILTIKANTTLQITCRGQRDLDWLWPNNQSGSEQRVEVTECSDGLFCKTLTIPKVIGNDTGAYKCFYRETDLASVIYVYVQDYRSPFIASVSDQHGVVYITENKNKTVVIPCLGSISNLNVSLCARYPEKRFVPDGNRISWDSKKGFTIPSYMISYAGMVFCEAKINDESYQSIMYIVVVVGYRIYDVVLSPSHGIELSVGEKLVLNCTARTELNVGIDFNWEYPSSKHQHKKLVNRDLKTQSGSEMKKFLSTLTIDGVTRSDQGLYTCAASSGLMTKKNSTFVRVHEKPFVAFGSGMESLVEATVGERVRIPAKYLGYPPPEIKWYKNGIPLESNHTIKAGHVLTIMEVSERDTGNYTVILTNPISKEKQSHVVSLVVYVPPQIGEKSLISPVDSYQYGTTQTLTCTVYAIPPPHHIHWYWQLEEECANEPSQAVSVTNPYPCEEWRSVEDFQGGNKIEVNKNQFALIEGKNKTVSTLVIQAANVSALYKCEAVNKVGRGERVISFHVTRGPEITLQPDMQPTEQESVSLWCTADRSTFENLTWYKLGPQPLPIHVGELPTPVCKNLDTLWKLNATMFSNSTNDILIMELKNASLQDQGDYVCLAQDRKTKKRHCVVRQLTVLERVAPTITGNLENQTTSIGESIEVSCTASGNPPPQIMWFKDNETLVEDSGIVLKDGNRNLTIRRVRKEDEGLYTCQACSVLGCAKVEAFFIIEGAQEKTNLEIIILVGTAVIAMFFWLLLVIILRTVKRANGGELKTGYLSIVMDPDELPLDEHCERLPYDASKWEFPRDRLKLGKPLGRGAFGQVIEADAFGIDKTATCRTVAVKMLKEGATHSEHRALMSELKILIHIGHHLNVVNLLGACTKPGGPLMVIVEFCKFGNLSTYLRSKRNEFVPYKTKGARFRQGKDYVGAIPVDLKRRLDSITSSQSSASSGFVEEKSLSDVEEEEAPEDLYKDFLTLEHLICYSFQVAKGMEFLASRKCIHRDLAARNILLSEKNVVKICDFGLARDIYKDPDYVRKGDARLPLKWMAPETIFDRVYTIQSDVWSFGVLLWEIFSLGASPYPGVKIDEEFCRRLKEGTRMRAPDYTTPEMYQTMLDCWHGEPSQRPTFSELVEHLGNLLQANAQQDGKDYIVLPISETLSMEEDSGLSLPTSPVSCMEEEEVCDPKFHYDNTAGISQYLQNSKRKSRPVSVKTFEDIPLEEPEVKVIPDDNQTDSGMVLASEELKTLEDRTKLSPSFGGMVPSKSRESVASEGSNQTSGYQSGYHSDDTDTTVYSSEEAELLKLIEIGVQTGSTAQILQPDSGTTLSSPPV

`CN(C)c1cccc(C(=O)Nc2cccc(Oc3ccnc(-c4cnn(C)c4)c3)c2)c1` [Example 28, 3-(Dimethylamino)-N-(3-(2-(1-methyl-1H-pyrazol-4-yl)pyridin-4-yloxy)phenyl)benzamide]: the IC50 (on VEGFR2 kinase; in assay [1]; against PDGFRβ kinase) was over 10 µM in each case.

`COc1ccc(C(=O)Nc2cccc(Oc3ccnc(-c4nnco4)c3)c2)cc1OC1CCCC1` [Example 9, N-(3-(2-(1,3,4-Oxadiazol-2-yl)pyridin-4-yloxy)phenyl)-3-(cyclopentyloxy)-4-methoxybenzamide]: the values for the half-inhibitory concentration (IC50) (on VEGFR2 kinase; in assay [1]; on PDGFRβ kinase) were at most 10 µM, over 10 µM and at most 10 µM, respectively.

Take `O=C(Nc1cccc(Oc2ccnc(-c3nnco3)c2)c1)c1ccc2c(c1)OCCCO2` [Example 6, N-(3-(2-(1,3,4-Oxadiazol-2-yl)pyridin-4-yloxy)phenyl)-3,4-dihydro-2H-benzo[b][1,4]dioxepine-7-carboxamide]: the IC50 against VEGFR2 kinase is at most 10 µM; in assay [1], over 10 µM; against PDGFRβ kinase it was over 10 µM.

As for `Cn1cc(-c2cc(Oc3cccc(NC(=O)c4ccc5ccccc5c4)c3)ccn2)cn1` [Example 53, N-(3-(2-(1-Methyl-1H-pyrazol-4-yl)pyridin-4-yloxy)phenyl)-2-naphthamide], the IC50 (at VEGFR2 kinase; in assay [1]; against PDGFRβ kinase) was over 10 µM in each case.

As to `Cn1cc(-c2cc(Oc3cccc(NC(=O)c4cncc(-n5cccc5)c4)c3)ccn2)cn1` [Example 35, N-(3-(2-(1-Methyl-1H-pyrazol-4-yl)pyridin-4-yloxy)phenyl)-5-(1H-pyrrol-1-yl)nicotinamide], the IC50 (on VEGFR2 kinase; in assay [1]; against PDGFRβ kinase) was over 10 µM each time.

With `O=C(Nc1cccc(Oc2ccnc(-c3nnco3)c2)c1)c1cccc(Oc2ccccc2)c1` [Example 4, N-(3-(2-(1,3,4-Oxadiazol-2-yl)pyridin-4-yloxy)phenyl)-3-phenoxybenzamide], the IC50 against VEGFR2 kinase is at most 10 µM; in assay [1] it was over 10 µM; at PDGFRβ kinase it was at most 10 µM.

As to `Cn1cc(-c2cc(Oc3cccc(NC(=O)c4cccc5[nH]ccc45)c3)ccn2)cn1` [Example 69, N-(3-(2-(1-Methyl-1H-pyrazol-4-yl)pyridin-4-yloxy)phenyl)-1H-indole-4-carboxamide], the values for the IC50 (against VEGFR2 kinase; in assay [1]; on PDGFRβ kinase) were at most 10 µM, at most 10 µM and over 10 µM, respectively.

For the compound `CC(C#N)c1cccc(C(=O)Nc2cccc(Oc3ccnc(-c4cnn(C)c4)c3)c2)c1` (racemic) [Example 48, (±)-3-(1-Cyanoethyl)-N-(3-(2-(1-methyl-1H-pyrazol-4-yl)pyridin-4-yloxy)phenyl)benzamide], the IC50 (at VEGFR2 kinase; in assay [1]; on PDGFRβ kinase) was over 10 µM in each case.

As for `Cn1cc(-c2cc(Oc3cccc(NC(=O)c4ccc5c(c4)OC(F)(F)O5)c3)ccn2)cn1` [Example 62, 2,2-Difluoro-N-(3-(2-(1-methyl-1H-pyrazol-4-yl)pyridin-4-yloxy)phenyl)benzo[d][1,3]dioxole-5-carboxamide], the IC50 (against VEGFR2 kinase; in assay [1]; at PDGFRβ kinase) was over 10 µM throughout.

For `Cn1cc(-c2cc(Oc3cccc(NC(=O)c4ccc(OC(F)(F)F)cc4OC(F)(F)F)c3)ccn2)cn1` [Example 42, N-(3-(2-(1-Methyl-1H-pyrazol-4-yl)pyridin-4-yloxy)phenyl)-2,4-bis(trifluoromethoxy)benzamide], the results for the IC50 (at VEGFR2 kinase; in assay [1]; against PDGFRβ kinase) were at most 10 µM, at most 10 µM and over 10 µM, respectively.

As for `Cn1cc(-c2nccc(Oc3cccc(NC(=O)c4ccc(OC(F)(F)F)cc4)c3)n2)cn1` [Example 27, N-{3-[2-(1-Methyl-1H-pyrazol-4-yl)-pyrimidin-4-yloxy]-phenyl}-4-trifluoromethoxy-benzamide], the IC50 (against VEGFR2 kinase; in assay [1]; at PDGFRβ kinase) was over 10 µM in each case.

As for `CCOc1cc(OCC)cc(C(=O)Nc2cccc(Oc3ccnc(-c4nnco4)c3)c2)c1` [Example 7, N-(3-(2-(1,3,4-Oxadiazol-2-yl)pyridin-4-yloxy)phenyl)-3,5-diethoxybenzamide], the IC50 (on VEGFR2 kinase; in assay [1]; on PDGFRβ kinase) was over 10 µM throughout.

With `Cn1cc(-c2cc(Oc3cccc(NC(=O)c4cccc(-c5ccccc5)c4)c3)ccn2)cn1` [Example 31, N-(3-(2-(1-Methyl-1H-pyrazol-4-yl)pyridin-4-yloxy)phenyl)biphenyl-3-carboxamide], the IC50 (at VEGFR2 kinase; in assay [1]; against PDGFRβ kinase) was over 10 µM each time.

For `Cn1cc(-c2cc(Oc3cccc(NC(=O)c4cccc(-n5ccnc5)c4)c3)ccn2)cn1` [Example 37, 3-(1H-Imidazol-1-yl)-N-(3-(2-(1-methyl-1H-pyrazol-4-yl)pyridin-4-yloxy)phenyl) benzamide], the IC50 (at VEGFR2 kinase; in assay [1]; against PDGFRβ kinase) was over 10 µM each time.

Regarding `Cn1cc(-c2cc(Oc3cccc(NC(=O)c4cccc5c4OC(F)(F)O5)c3)ccn2)cn1` [Example 30, 2,2-Difluoro-N-(3-(2-(1-methyl-1H-pyrazol-4-yl)pyridin-4-yloxy)phenyl)benzo[d][1,3]dioxole-4-carboxamide], the IC50 (on VEGFR2 kinase; in assay [1]; against PDGFRβ kinase) was over 10 µM throughout.

With `CC(C)Oc1ccc(C(=O)Nc2cccc(Oc3ccnc(-c4cnn(C)c4)c3)c2)cc1` [Example 75, 4-Isopropoxy-N-(3-(2-(1-methyl-1H-pyrazol-4-yl)pyridin-4-yloxy)phenyl)benzamide], the half-maximal inhibitory concentration (IC50) against VEGFR2 kinase was over 10 µM; in assay [1], at most 10 µM; against PDGFRβ kinase it was over 10 µM.

With `CCCOc1ccc(C(=O)Nc2cccc(Oc3ccnc(-c4cnn(C)c4)c3)c2)cc1` [Example 74, N-(3-(2-(1-Methyl-1H-pyrazol-4-yl)pyridin-4-yloxy)phenyl)-4-propoxybenzamide], the results for the IC50 (against VEGFR2 kinase; in assay [1]; on PDGFRβ kinase) were over 10 µM, at most 10 µM and over 10 µM, respectively.

For the compound `Cn1cc(-c2cc(Oc3cccc(NC(=O)c4ccc(C(=O)c5ccccc5)cc4)c3)ccn2)cn1` [Example 51, 4-Benzoyl-N-(3-(2-(1-methyl-1H-pyrazol-4-yl)pyridin-4-yloxy)phenyl)benzamide], the IC50 at VEGFR2 kinase was at most 10 µM; in assay [1] it was at most 10 µM; against PDGFRβ kinase, over 10 µM.

Take `CCOc1cc(OCC)cc(C(=O)Nc2cc(Oc3cc(-c4cnn(C)c4)ncn3)ccc2F)c1` [Example 17, 3,5-Diethoxy-N-(2-fluoro-5-(6-(1-methyl-1H-pyrazol-4-yl)pyrimidin-4-yloxy)phenyl)benzamide]: the half-maximal inhibitory concentration (IC50) (on VEGFR2 kinase; in assay [1]; on PDGFRβ kinase) was over 10 µM each time.

For the compound `CCOc1cc(C(=O)Nc2cccc(Oc3ccnc(C(=O)NC)c3)c2)cc(OCC)c1OCC` [Example 13, N-Methyl-4-(3-(3,4,5-triethoxybenzamido)phenoxy)picolinamide], the half-inhibitory concentration (IC50) is at most 10 µM against VEGFR2 kinase, over 10 µM in assay [1] and at most 10 µM at PDGFRβ kinase.

`CCOc1cc(OCC)cc(C(=O)Nc2ccc(Oc3ccnc(-c4cnn(C)c4)c3)cc2)c1` [Example 20, 3,5-Diethoxy-N-(4-(2-(1-methyl-1H-pyrazol-4-yl)pyridin-4-yloxy)phenyl)benzamide]: the IC50 (against VEGFR2 kinase; in assay [1]; at PDGFRβ kinase) was at most 10 µM in each case.

Source of the values: US20070155746A1, “NOVEL SUBSTITUTED PYRIDINYLOXY AND PYRIMIDINYLOXY AMIDES USEFUL AS INHIBITORS OF PROTEIN KINASES” (KALYPSYS, INC., priority 2005, published 2007).
